Data taken from patent US20260258021A1, “MONOFLUORINATED COUMARIN FLUOROPHORES AND USES THEREOF” (Ohio State Innovation Foundation, priority 2023, published 2026).
Where “and” joins values, the source holds several entries; their conditions need not be identical. Equal values may be shown once. Read-outs that look alike come from different tables or passages of the source. Marks after values point to notes of the source that are not given here.

How the values were obtained:
[1] = system: HEK293T cells; experiment: Cytotoxicity by propidium iodide staining in the FPCBA with DDR1-expressing cells; format: cell-based; conditions: living HEK293T cells, FPCBA competition experiments, [6FC-Dasatinib]=1 μM
Procedure: FIGS. 6A and 6B depict a fluorescent probe cellular binding assay (FPCBA) with 6FC-Dasatanib and native DDR1 kinase (IRES-mVenus). (FIG. 6A) Binding of 6FC-Dasatanib to native DDR1 expressed in living HEK293T cells by flow cytometry (2 h, 37° C.). (FIG. 6B) Competition experiments against native DDR1 in living HEK293T cells with the kinase inhibitors ponatinib and dasatinib by flow cytometry. [6FC-Dasatinib]=1 μM.
The previously reported FPCBA approach (Yin, Y. et al. J Am. Chem. Soc. 2024, 146 (1), 187-200) was used to analyze binding of small molecules to native full length DDR1 kinase overexpressed in living HEK293T cells (IRES-mVenus vector) by flow cytometry.

[2] = literature; cited from earlier work
[3] = system: microtubules of living HeLa cells; conditions: for Kd: read-out: cellular Kd
[4] = Absorbance and fluorescence spectroscopy of coumarin amides (λmax, molar extinction coefficient, quantum yield); format: physicochemical; conditions: for ε405 nm (molar extinction coefficient): 405 nm, 10% DMSO; for ε405 nm (molar extinction coefficient) / Φ (quantum yield): PBS; for Φ (quantum yield) / Abs. λmax / Em. λmax: 1% DMSO; for Φ (quantum yield): relative to 30; for Abs. λmax / Em. λmax: aqueous PBS
Procedure: FIG. […] FIG. 4B depicts the determination of molar extinction coefficients (ε405 nm) of 26-28 as previously described in J. Am. Chem. Soc. […] The integrated fluorescence intensity (Ex. 405 nm, Em. 420-700 nm) was plotted against the maximum absorbance of the sample at the concentration studied (100 nM-6.25 nM) as extrapolated from absorbance measurements at higher concentrations. The slope determined by linear least squares (zero intercept) is proportional to the quantum yield. Spectra were acquired with a BMG LabTech ClarioStar Plus microtiterplate reader.

[5] = physchem; conditions: aqueous buffers of varied pH
[6] = cited from earlier work; for ε405 nm (molar extinction coefficient): 405 nm, PBS, 10% DMSO, previously described; for Φ (quantum yield): pH 7.4, 1% DMSO, based on a previously reported PB-biotin amide
[7] = target: purified microtubules; conditions: literature; cited from earlier work
[8] = system: HeLa cells; conditions: 3 h, 37° C., absence of verapamil
[9] = living HeLa cells, 3 h, 37° C., absence of verapamil
[10] = living HeLa cells, 3 h, 37° C., presence of verapamil (100 μM)

## Cc1nc(Nc2ncc(C(=O)Nc3c(C)cccc3Cl)s2)cc(N2CCN(CCOCCNC(=O)c3cc4cc(F)c(O)cc4oc3=O)CC2)n1 [6FC-Dasatinib, N-(2-chloro-6-methylphenyl)-2-((6-(4-(2-(2-(6-fluoro-7-hydroxy-2-oxo-2H-chromene-3-carboxamido)ethoxy)ethyl)piperazin-1-yl)-2-methylpyrimidin-4-yl)amino)thiazole-5-carboxamide]
[1]
  Cytotoxicity (propidium iodide staining): No cytotoxicity was observed

## O=C(O)c1cc2ccc(O)cc2oc1=O [Compound 1, 7-hydroxycoumarin-3-carboxylic acid]
[2]
  pKa of the phenol: 7.0-7.5

## O=C(O)c1cc2cc(F)c(O)c(F)c2oc1=O [Compound 2, Pacific Blue]
[2]
  pKa of the phenol: 4.7

## CC(=O)O[C@H]1C(=O)[C@]2(C)[C@@H](OC(=O)CCCNC(=O)c3cc4c(F)cc(O)cc4oc3=O)C[C@H]3OC[C@@]3(OC(C)=O)[C@H]2[C@H](OC(=O)c2ccccc2)[C@]2(O)C[C@H](OC(=O)[C@H](O)[C@@H](NC(=O)c3ccccc3)c3ccccc3)C(C)=C1C2(C)C [Compound 8, (2aR,4S,4aS,6R,9S,11S,12S,12bS)-9-(((2R,3S)-3-benzamido-2-hydroxy-3-phenylpropanoyl)oxy)-12-(benzoyloxy)-4-((4-(5-fluoro-7-hydroxy-2-oxo-2H-chromene-3-carboxamido)butanoyl)oxy)-11-hydroxy-4a,8,13,13-tetramethyl-5-oxo-3,4,4a,5,6,9,10,11,12,12a-decahydro-1H-7,11-methanocyclodeca[3,4]benzo[1,2-b]oxete-6,12b(2aH)-diyl diacetate]
[3]; 0.4 μM probe, absence of verapamil
  S/B (maximal signal-to-background, fold change): 7 fold
[3]; [9]
  cellular Kd: low affinity prevented accurate determination
[3]; [10]
  Kd: 150 nM

## CC(=O)O[C@H]1C(=O)[C@]2(C)[C@@H](OC(=O)CCCNC(=O)c3cc4cc(F)c(O)cc4oc3=O)C[C@H]3OC[C@@]3(OC(C)=O)[C@H]2[C@H](OC(=O)c2ccccc2)[C@]2(O)C[C@H](OC(=O)[C@H](O)[C@@H](NC(=O)c3ccccc3)c3ccccc3)C(C)=C1C2(C)C [Compound 9, (2aR,4S,4aS,6R,9S,11S,12S,12bS)-9-(((2R,3S)-3-benzamido-2-hydroxy-3-phenylpropanoyl)oxy)-12-(benzoyloxy)-4-((4-(6-fluoro-7-hydroxy-2-oxo-2H-chromene-3-carboxamido)butanoyl)oxy)-11-hydroxy-4a,8,13,13-tetramethyl-5-oxo-3,4,4a,5,6,9,10,11,12,12a-decahydro-1H-7,11-methanocyclodeca[3,4]benzo[1,2-b]oxete-6,12b(2aH)-diyl diacetate]
[3]; [9]
  Kd: 2400 nM
[3]; [10]
  Kd: 150 nM

## CC(=O)O[C@H]1C(=O)[C@]2(C)[C@@H](OC(=O)CCCNC(=O)c3cc4ccc(O)c(F)c4oc3=O)C[C@H]3OC[C@@]3(OC(C)=O)[C@H]2[C@H](OC(=O)c2ccccc2)[C@]2(O)C[C@H](OC(=O)[C@H](O)[C@@H](NC(=O)c3ccccc3)c3ccccc3)C(C)=C1C2(C)C [Compound 10, (2aR,4S,4aS,6R,9S,11S,12S,12bS)-9-(((2R,3S)-3-Benzamido-2-hydroxy-3-phenylpropanoyl)oxy)-12-(benzoyloxy)-4-((4-(8-fluoro-7-hydroxy-2-oxo-2H-chromene-3-carboxamido)butanoyl)oxy)-11-hydroxy-4a,8,13,13-tetramethyl-5-oxo-3,4,4a,5,6,9,10,11,12,12a-decahydro-1H-7,11-methanocyclodeca[3,4]benzo[1,2-b]oxete-6,12b(2aH)-diyl diacetate]
[3]; [9]
  Kd: 3500 nM
[3]; [10]
  Kd: 230 nM

## CCCCCCNC(=O)c1cc2c(F)cc(O)cc2oc1=O [Compound 26, 5-Fluoro-N-hexyl-7-hydroxy-2-oxo-2H-chromene-3-carboxamide]
[4]; pH 7.4
  ε405 nm (molar extinction coefficient): 25,000 (7.4) M^−1 cm^−1
  Φ (quantum yield): 0.73
  Abs. λmax: 400 nm
  Em. λmax: 449 nm
[5]
  pKa: 6.9

## CCCCCCNC(=O)c1cc2cc(F)c(O)cc2oc1=O [Compound 27, 6-Fluoro-N-hexyl-7-hydroxy-2-oxo-2H-chromene-3-carboxamide]
[4]; pH 7.4
  ε405 nm (molar extinction coefficient): 37,000 M^−1 cm^−1
  Φ (quantum yield): 0.84
  Abs. λmax: 401 nm
  Em. λmax: 451 nm
  Brightness (product of molar extinction coefficient and quantum yield) relative to PB-hexanamide (30): 145%
[4]; pH 7.4, listed as 6FC-hexanamide (27)
  ε405 nm (molar extinction coefficient): 37,000 M^−1 cm^−1 and 37,000 (7.4) M^−1 cm^−1
[5]
  pKa: 6.5

## CCCCCCNC(=O)c1cc2ccc(O)c(F)c2oc1=O [Compound 28, 8-Fluoro-N-hexyl-7-hydroxy-2-oxo-2H-chromene-3-carboxamide]
[4]; pH 7.4
  ε405 nm (molar extinction coefficient): 28,000 (7.4) M^−1 cm^−1
  Φ (quantum yield): 0.69
  Abs. λmax: 402 nm
  Em. λmax: 457 nm
[5]
  pKa: 6

## CCCCCCNC(=O)c1cc2ccc(O)cc2oc1=O [Compound 29, N-Hexyl-7-hydroxy-2-oxo-2H-chromene-3-carboxamide, reference compound]
[4]; pH 7.4
  Φ (quantum yield): 0.35
  Abs. λmax: 401 nm
  Em. λmax: 447 nm
[4]; pH 10
  Φ (quantum yield): 0.62
[5]
  pKa: 7.3
[6]; pH 10
  ε405 nm (molar extinction coefficient): 22,000 (10) M^−1 cm^−1

## CCCCCCNC(=O)c1cc2cc(F)c(O)c(F)c2oc1=O [Compound 30, 6,8-Difluoro-N-hexyl-7-hydroxy-2-oxo-2H-chromene-3-carboxamide, reference compound]
[4]; pH 7.4
  Abs. λmax: 403 nm
  Em. λmax: 447 nm
[5]
  pKa: 4.1
[6]; pH 7.4
  ε405 nm (molar extinction coefficient): 29,000 (7.4) M^−1 cm^−1
[6]
  Φ (quantum yield): 0.74
[6]; listed as PB-hexanamide (30)
  Φ (quantum yield): 0.74^‡

## COC(=O)c1cc2cc(F)c(O)c(F)c2oc1=O [PB methyl ester]
[2]
  pKa of the phenol: 3.7

## CC(=O)O[C@H]1C(=O)[C@@]2(C)[C@H]([C@H](OC(=O)c3ccccc3)[C@]3(O)C[C@H](OC(=O)[C@H](O)[C@@H](NC(=O)c4ccccc4)c4ccccc4)C(C)=C1C3(C)C)[C@]1(OC(C)=O)CO[C@@H]1C[C@@H]2O [paclitaxel]
[7]
  Ki: 19 nM and 27 nM and 31 nM

## (2aR,4S,4aS,6R,9S,11S,12S,12bS)-9-(((2R,3S)-3-benzamido-2-hydroxy-3-phenylpropanoyl)oxy)-12-(benzoyloxy)-11-hydroxy-4-((4-(7-hydroxy-2-oxo-2H-chromene-3-carboxamido)butanoyl)oxy)-4a,8,13,13-tetramethyl-5-oxo-3,4,4a,5,6,9,10,11,12,12a-decahydro-1H-7,11-methanocyclodeca[3,4]benzo[1,2-b]oxete-6,12b(2aH)-diyldiacetate [Compound 6]
[8]
  Cellular uptake: high cellular uptake
